Columns and labels:
[1] = tested on: Meloidogyne incognita race-3; assay: Field Station drench of sandy loam soil infested with root-knot nematode (FIGS. 18-19); type: in vivo
Description: Field Station evaluations included sandy loam soil at 10° C. vs 15° C. in adjacent sites. These sites were uniformly infested with Meloidogyne incognita race-3. The first site (10° C.) was drenched with 750 or 1,000 ppm to a depth of 40 cm and planted with carrots 70 DAT. Ten weeks later soil at the second site (15° C.) was drenched with 1,250 or 1,500 ppm and 30 DAT planted with sweet potato slips. Nematode samples were collected at 0-15 and 15-30 cm depths.

[2] = tested on: cotton or occasional nutgrass; assay: Phytotoxicity after drench in cotton field; type: in vivo; details: 3,000 or 4,500 ppm; never irrigated field
[3] = tested on: one-year-old almonds trees; assay: Root system soak of one-year-old almond trees (FIGS. 24-25); type: in vivo; details: 750 ppm, 24 hr, entire root systems soaked in a static setting
From the text: Field Station evaluation where root systems of one-year-old almonds trees were placed in concentrations of HyCyn. Intact 1-yr-old trees were separated from their planting pots and placed into buckets containing open solutions of 400; 750; 1,000; 1,250; 1,500; or 3,000 ppm HyCyn for 6, 18 or 24 hr. […] The results are depicted in FIGS. 24 and 25.

[4] = tested on: eight-year-old butternut trees, Juglans cathayensis; assay: Drench of eight-year-old butternut trees, tree kill (FIG. 26); type: in vivo
From the text: Field Station evaluation of eight-year-old butternut trees, Juglans cathayensis, drenched with 2,000 ppm HyCyn within 400 or 800 L water. Two of four trees receiving 400 L solution were not completely killed but four of four trees receiving 800 L of the same solution were killed (FIG. 26).

F. oxysporum race-4 = assay: Field Station drench of sandy loam soil to be planted to cotton, fungal counts (FIGS. 20-21); type: in vivo, Fusarium oxysporum; details: 3,000 or 4,500 ppm drenched to 40 cm; sandy loam at 10° C.; counted 28 and 70 DAT
Description: Field Station evaluation in sandy loam soil at 10° C. to be planted to cotton soil was drenched with 3,000 or 4,500 ppm HyCyn to 40 cm depth. F. oxysporum race-4 were identified and counted at 28 DAT (FIG. 20) and 70 DAT (FIG. 21).

[5] = tested on: endo and ecotparasitic nematodes; assay: Soil column drench, nematode control (Example 1, FIG. 2); type: in vivo; details: 750 ppm; soil screened free of roots; 15, 30 and 60 days after treatment
Description: In situ soil borne pest and disease populations were determined from known commercial locations. These infested soils were commonly of sandy loam or fine sandy loam texture that were screened free of all but the smallest of roots as they were placed into buckets. Buckets were then transported to a single location of deep loamy sand soil where 30″ long by 3″ diameter PVC open-ended pipes had been inserted to a depth of 22″ using a 3″ can auger (FIG. 1). Each soil column was then filled with infested soil to a depth of 22″ using a shovel handle to compress soil density during the soil transfer process.
The surface 8″ of each column remained vacant in order to eventually apply one liter of biocide solution onto each soil column and then determine the amount of time required to fully infiltrate the liter of water. Because infiltration rates varied from 3 hr to 4 days across each different biocide with or without adjuvant each column was used only once. Columns were cleaned and re-inserted to a different nearby location for subsequent tests. As testing proceeded dosage response curves were developed to reveal dosages needed to reach threshold levels for pest impact followed by quantification of the dosage needed to achieve as much as 100% pest kill where possible. […]

[6] = tested on: Young almond trees on NEMAGUARD rootstock; assay: Almond replant site soil, potted tree growth (FIGS. 22-23); type: in vivo
From the text: Field Station evaluation involved sandy loam soil at an almond replant site drenched uniformly with 1,000 ppm. Surface soil was collected 60 days later and potted from three treatments, water only, 250 ppm Telone EC and 1000 ppm HyCyn. Young almond trees on NEMAGUARD rootstock were planted to each pot and trees maintained for six months.

P. vulnus = assay: Five-day sieve-mist extraction of nematodes from roots and soil after tree drench (FIG. 27); type: in vivo, Pratylenchus vulnus; details: 2,000 ppm drench

N#CN [HyCyn, hydrogen cyanamide]
nematode control ([1]; 750 or 1,000 ppm drenched to 40 cm, sandy loam soil at 10° C., carrots): no nematode control | nematode control ([1]; 1,250 or 1,500 ppm, sandy loam soil at 15° C., sweet potato): did provide nematode control | burning of leaves of cotton or occasional nutgrass [2]: did not cease even five months after treatment | tree survival after root soak [3]: no tree survived or re-initiated growth | trees not completely killed ([4]; 2,000 ppm within 400 L water): Two of four | trees killed ([4]; 2,000 ppm within 800 L water): four of four | rate needed to halt F. oxysporum (F. oxysporum race-4): highest rate was necessary to halt F. oxysporum | effect on nematode populations in test soil [5]: elimination of endo and ecotparasitic nematodes | root rejection component of the replant problem ([6]; 1,000 ppm): provides a remedy for the root rejection component of the replant problem | tree growth after six months (FIG. 23) ([6]; 1,000 ppm, compared to soil treated with 250 ppm Telone ec or untreated soil): improved growth | tree growth within 2 months after planting ([6]; soil drenched with 1,000 ppm, collected 60 days later and potted, versus water only): improved growth | plant biomass at the 6th month ([6]; soil drenched with 1,000 ppm, compared to the untreated): plant biomass differences were greater | kill of soil dwelling nematodes (P. vulnus; beneath the surface 90 cm of treated soil): 99.9% | kill of P. vulnus from root samples (P. vulnus; root samples, FIG. 27: 30 DAT): kill of all P. vulnus

Source: patent publication US10455839B2, “Pre-plant biocide uses of aqueous cyanamides” (METBRO DI[…], priority 2015, dated 2019)
